Experimental data as given in patent US20210183467A1, “SYSTEM AND METHOD FOR USING MICROBIOME TO DE-RISK DRUG DEVELOPMENT” (YALE UNIVERSITY, priority 2018, published 2021).

Tests used:
[1] = test system: Bacteroides thetaiotaomicron; assay: BRV conversion assay with gut isolates; format: in vitro ADME; details: among ten bacterial species
Description: (§1) Frozen stocks of bacteria (Table 4) are plated on BHI blood agar and incubated at 37° C. under anaerobic conditions. Single colonies are inoculated into 4 mL pre-reduced GMM and incubated anaerobically at 37° C. for 24 h (Akkermansia muciniphila for 48 hours). BRV conversion assays are performed with the resulting dense cultures, as described above for bacterial communities.

Bacteroides ovatus = format: in vitro ADME
Description: as §1

[2] = Oral BRV in conventional (CV) and germfree (GF) mice, drug and metabolite levels; format: in vivo, C57BL/6 mice
Description: Oral BRV was administered to conventional (CV) and germfree (GF) C57BL/6 mice, and BRV and BVU concentrations were measured over time along the length of the gastrointestinal tract as shown in FIG. 4C. Serum kinetics of BRV and BVU in conventional (CV) and germ-free (GF) mice were compared following oral BRV administration.
All experiments using mice are performed using protocols approved by the Yale University Institutional Animal Care and Use Committee. Germfree (GF) 8 to 12 week old C57BL/6J mice are maintained in flexible plastic gnotobiotic isolators with a 12-hour light/dark cycle and GF status monitored by PCR and culture-based methods. Conventional C57BL/6J mice (Jackson Laboratories) are purchased at the age of 6-7 weeks and kept in the lab for 2-3 weeks before experiments. All mice are provided a standard, autoclaved mouse chow (5013 LabDiet, Purina) ad libitum.
(§2) Each drug treatment is performed using 20 treated and 5 to 6 untreated animals. Both genders are equally represented in each group and evenly distributed across the different time points for sample collection. Animals (n=5 per time point and group) are given 100 mg/kg body weight of BRV or SRV as suspensions in PBS (200 μL PBS for controls) by oral gavage. One blood sample is collected from each animal at an early time point (0.5, 1, 1.5, or 2 hours after drug administration) by submandibular bleeding. At 3, 5, 7, and 9 h, mice are sacrificed and tissue samples are collected into sample tubes and snap-frozen. Fecal samples are collected before euthanization and re-suspended in PBS (1 mL) through vigorous shaking. 20 μL are then plated on BHI blood plates and incubated aerobically and anaerobically at 37° C. to check GF, GN^WT, and GN^MUT animals for contamination. Monocolonized mice are also checked for contamination by PCR using primers 7 and 8.
200 μL of 0.1 mm zirconia/silica beads (BioSpec Products) and 500 μL of organic solvent (acetonitrile:methanol, 1:1) supplemented with internal standard are added to 50-350 mg of pre-weighed solid material. Material is homogenized by mechanical disruption with a bead beater (BioSpec Products) set for 2 minutes on high setting at room temperature. After incubation for at least 1 h at −20° C., samples are centrifuged (3220 rcf, −9° C.) for 15 min. 10 μL of supernatant are diluted with 10 μL H2O for analysis by LC-MS.
Samples for LS-MS analysis are prepared as described above. Chromatographic separation is performed on a C18 Kinetex Evo column (Phenomenex, 100 mm×2.1 mm, […]) using mobile phase A: H2O, 0.1% formic acid and B: methanol, 0.1% formic acid at 45° C. 5 μL of sample are injected at 100% A and 0.4 mL/min flow followed by a linear gradient to 95% B over 5.5 min and 0.4 mL/min flow leading to thymine, BVU, SRV, and BRV elution at 0.95, 2.0, 2.15, and 2.4 min, respectively. The internal standards caffeine and sulfamethoxazole elute at 1.9 and 2.1 min, respectively. The qTOF is operated in positive scanning mode (50-1000 m/z) and the following source parameters: VCap is 3500 V; nozzle voltage is 2000 V; gas temp is 225 C; drying gas 13 L/min; nebulizer is 20 psig; sheath gas temp is 225 C; and sheath gas flow is 12 L/min. Online mass calibration is performed using a second ionization source and a constant flow (5 μL/min) of reference solution (121.0509 and 922.0098 m/z). Compounds are identified based on the retention time of chemical standards and their accurate mass (tolerance 20 ppm).

[3] = format: in vivo, C57BL/6J mice
Description: Germfree mice were colonized with the wildtype and mutant strains. BRV was administered.
Individually caged GF C57BL/6J mice are colonized by oral gavage with 200 μL of an overnight GMM culture of either B. thetaiotaomicron wild type or bt4554 strains to generate GN^WT or GN^MUT mice, respectively. After 4 days, bacterial loads are determined by CFU plating on BHI blood agar prior to drug treatment.
as §2

[4] = model parameter; Clinical Virology 3rd edition, 2009; cited from earlier work

Q: Which results are given for `O=c1[nH]c(=O)n([C@H]2C[C@H](O)[C@@H](CO)O2)cc1/C=C/Br` [BRV, Brivudine]?
A: capacity to convert BRV to BVU [1]: highest metabolic activity; capacity to convert BRV to BVU (Bacteroides ovatus): highest metabolic activity; endogenous DPD substrates (thymine) in the liver ([2]; BRV-treated CV mice): accumulate endogenous DPD substrates; drug concentrations along the length of the gastrointestinal tract ([2]; CV mice, oral BRV): progressively reduced; BRV levels over time in the duodenum ([2]; CV versus GF mice, oral BRV): similar; serum BRV ([2]; CV versus GF mice, oral BRV): without a corresponding decrease; BRV levels further along the gastrointestinal tract and in feces ([2]; GF mice versus CV, oral BRV): significantly higher; absorption of BRV from the lower intestine ([3]; GN^MUT mice excrete the drug in feces): poorly absorbed; metabolism of cecal BRV by wildtype B. thetaiotaomicron ([3]; GN^WT mice): completely metabolizes; thymine in the liver ([3]; GN^WT mice after BRV administration): thymine accumulation in the liver; BRV serum kinetics ([3]; GN^WT versus GN^MUT mice): indistinguishable; F, bioavailability of the drug [4]: 0.3 fraction
